The subject of test [1] is HSV-1 HF strain. In words: HSV-1 reduction assay, HF strain. The settings on record: Human alphaherpesvirus 1; read-out: I50 with HF strain of HSV-1. The format is cell-based, herpes simplex virus type 1 (HF strain). An excerpt: The 148 strain of HSV-1 was used in most experiments and was provided by Dr. T. W. Schafer of Schering corporation. The HF strain of HSV-1 was used in selected experiments and was obtained from Dr. G. H. Cohen, University of Pennsylvania. The Towne strain, plaque-purified isolate Po, of HCMV was a gift of Dr. Mark Stinski, University of Iowa.
HSV-1 was titered using monolayer cultures of BSC-1 cells. Cells were planted at 3×10^5 cells/well using 6-well cluster dishes. MEM(E) supplemented with 10% fetal bovine serum was employed as medium. After 22-24 hours, cells were 90% confluent and were inoculated in triplicate using at least three ten-fold dilutions with 0.2 ml of the virus suspension to be assayed and incubated in a humidified 4% CO2 […] atmosphere for one hour to permit viral adsorption. Following virus adsorption, the cell sheet was overlayed with 5 ml of MEM(E) with 5% serum plus 0.5% methocel (4000 CPS) and incubated an additional two to three days. Cells were fixed and stained with 0.1% crystal violet in 20% methanol and macroscopic plaques enumerated.
Plaque reduction experiments were HSV-1 were performed using monolayer cultures of BSC-1 cells. The assay was performed exactly as described above except that the 0.2 ml virus suspension contained approximately 100 p.f.u. of HSV-1. Compounds to be tested were dissolved in the overlay medium at concentrations usually ranging from 0.1 to 100 μM in half-or-one logarithm10 dilutions. Titer reduction assays were performed by planting KB cells in 25 cm^2 plastic tissue culture flasks 10 to 24 hours prior to infection. At the onset of experiments, logarithmically growing replicate monolayer cultures were 60 to 80% confluent and contained 2.5 to 4.5×10^6 cells/flask. Medium was decanted and the cultures were infected with 2 to 10 p.f.u. of HSV-1 per cell. Virus was contained in 1.0 ml of VGM supplemented with 5% fetal bovine serum. After a 1 hour adsorption period at […], the cell sheet was rinsed twice with 2 ml of VGM without serum to remove unadsorbed virus and 5 ml of VGM containing drugs at three to five selected concentrations added in duplicate. Following an 18- to 22-hour incubation at 37° C., infected monolayers were treated with EDTA-trypsin to suspend the cells; aliquots were removed, subjected to three cycles of freezing and thawing, and stored at -76° C. for subsequent virus assay. Virus was titered on BSC-1 cells as described above.
Dose-response relationships were used to compare drug effects. These were constructed by linearly regressing the percent inhibition of parameters derived in the preceding sections against log drug concentrations. The 50% inhibitory (I50) concentrations were calculated from the regression lines using the methods described by Goldstein. […]

Test [2] relates to KB cells. In words: cells. The settings on record: Homo sapiens; [3H]dThd incorporation, KB cells; read-out: I50 on [3H]dThd incorporation. The format is cell-based, human. How it is done: KB or HFF cells were planted using a Costar Transplate-96 (Costar, Cambridge, Mass.) in Costar 96-well cluster dishes at a concentration of 10,000 to 12,000 cells per well. Wells were suspended in 200 μl of medium [MDM(H) plus 0.7 gm/liter NaCHO3 supplemented with 10% calf serum] per well. After incubation of 16 to 24 hours at 37° C. in a humidified atmosphere of 4% CO2 in air, […] of medium was removed per well. One-hundred μl of medium with or without compounds in twice their final concentrations was added to each well using a Titertek Multichannel Pipette. Final concentrations of compounds ranged from 0.1 to 320 μM. Fifty μl of medium containing radioactive precursors also was added to each well to give a final concentration to 1 to 3 μCi/ml of labeled precursor. [^3 H]Thd was diluted with unlabeled dThd to give a final concentration of 3 or 6 μM.
Logarithmic cell growth occurred during this time with continual uptake of labeled precursors. At the end of the incubation period, cells were individually harvested from each well using a Skatron Cell harvester (Skatronh, Inc., Sterling, Va.). Cultures for individual wells were harvested onto filter paper and washed free of unincorporated label with nine sequential washes with 5% trichloroacetic acid, nine washes with water, and nine with ethanol using the Skatron unit. Filters were dried, circles from individual cultures were punched from the filter mat and placed into mini-vials. Liquid scintillation solution was added, and radioactivity determined in a Beckman model LS8100 liquid scintillation spectrometer. All samples were counted for 2.0 minutes each, with three rounds of counting. Counts per minute were determined following the application of statistical methods to eliminate count rates which fell outside distribution limits defined by Chauvenet's rejection criterion.
All analyses were performed in triplicate. That is, three culture wells were used per time point, radioactive precursor, and drug concentration in all experiments. Results from triplicate assays were converted to percent of control and plotted as log dose-response curves from which 50% inhibitor (I50) concentrations were interpolated. Three concentrations of vidarabine were included on all plates as a positive control.
Dose-response relationships were used to compare drug effects. These were constructed by linearly regressing the percent inhibition of parameters derived in the preceding sections against log drug concentrations. The 50% inhibitory (I50) concentrations were calculated from the regression lines using the methods described by Goldstein. See Goldstein, A., Biostatistics: An Introductory Text, MacMillan, N.Y., 1964, pp. 156-161. Along with the I50 concentration for visual cytotoxicity, the averaged I50 concentrations are compared to I50 concentrations for inhibition for HCMV or HSV-1 replication. Compounds for which the ratio of cytotoxicity I50 concentrations to antiviral I50 concentrations (in vitro therapeutic index) were greater than 10, were considered for further study.

Test [3] relates to KB cells. In words: Growth of KB cells (population doubling times). Type of test: cell-based, human. The settings on record: for Population Doubling time: KB cells, control 23 hr. How it is done: (§1) Population doubling times and cell viability were measured in uninfected HFF and/or KB cells. Cells were planted in replicate 6-well plastic tissue culture dishes or in 25 cm^2 flasks as described above in part 1. Following an incubation period during which cells attached to the substrate, medium was decanted, the cell sheet rinsed once with HBS, and fresh medium added. The medium consisted of MEM(E) with 1.1 gm NaHCO3 /liter and 10% fetal bovine or calf serum plus appropriate log or half-log concentrations of drug. After additional periods of incubation from 1 to 72 hours at 37° C., cells were harvested by means of 0.05% trypsin plus 0.02% EDTA in a HEPES-buffered salt solution. Cells were enumerated using either a Coulter counter or a hemocytometer and viability determining using trypsan blue dye exclusion.
In more extensive cytotoxicity testing, the halogenated compounds were tested for effects on the growth of KB cells. Populations doubling times were calculated from the logarithmic portions of growth curves and were as follows: […]

The subject of test [4] is HFF cells. As to the kind of experiment: Growth of HFF cells. Type of test: cell-based, human. The settings on record: for HFF population doublings in 70 hours: 100 μM, control two doublings. How it is done:
as §1
The effect of these compounds on the growth of human diploid fibroblasts (HFF cells) was less pronounced. During a 70-hour incubation, control cells underwent two doublings. […] A 100 μM concentration reduced the number of cells by less than 10%.

Setting [5] is: comparison with UMJD 102 / UMJD 183.

Data on 7 compounds can be found in patent publication US4968686A, “Acyclic pyrrolo [2,3-d]pyrimidine analogs as antiviral agents” (The Regents of The University of Michigan, priority 1989, dated 1990).

pIC50: −log10 of the molar value.

As to `Nc1nc2c(ncn2COCCO)c(=O)[nH]1` [Acyclovir, reference compound], in test [1], the pIC50 is 4.44.
In the case of `Nc1ncnc2c1c(Cl)cn2COCCO` [UMJD 100, 4-Amino-5-chloro-7-(2-hydroxyethoxymethyl)pyrrolo[2,3-d]-pyrimidine], the values for the pIC50 in test [1] and in test [2] were less than 4.00 and 6.09, respectively. The entries for the “Population Doubling time” value in test [3] (1.0 μM), in test [3] (10.0 μM) and in test [3] (100.0 μM) were 25 h, 25 h and 27 h, respectively. Also, the “effect on KB cell growth (in words)” value in test [3] (100 μM) is “only a minor extent”. Besides, the “effect on number of HFF cells present at 70 hours (in words)” value in test [4] (10 or 32 μM, 70 hours) is given as “no decrease in the number of cells”.
For the compound `Nc1ncnc2c1c(Br)cn2COCCO` [UMJD 102, 4-Amino-5-bromo-7-(2-hydroxyethoxymethyl)pyrrolo[2,3-d]-pyrimidine], the pIC50 in test [1] is 4.55; in test [2], 6.89. For the same compound, the results for the “Population Doubling time” value in test [3] (0.1 μM), in test [3] (1.0 μM) and in test [3] (10.0 μM) were 30 h, 43 h and 84 h, respectively. For the same compound, the minimal effective concentration in test [3] (Homo sapiens, KB, read-out: lowest concentration that inhibited growth of KB cells) was found to be 0.1 µM. For the same compound, in test [3] (setting [5]), the “effect on KB cell growth (in words)” value was “cytostatic”. The “effect on growth of HFF cells relative to UMJD 100 (in words)” value in test [4] is given as “more pronounced”. The “HFF population doublings in 70 hours” value in test [4] (70 hours) is given as “one population doubling”.
On to `Nc1ncnc2c1c(I)cn2COCCO` [UMJD 104, 4-Amino-5-iodo-7-(2-hydroxyethoxymethyl)pyrrolo[2,3-d]-pyrimidine], for which the figures for the pIC50 in test [1] and in test [2] were 4.27 and 5.92, respectively. Besides, the “Population Doubling time” value in test [3] (0.1 μM) turned out to be 26 h; in test [3] (1.0 μM), 25 h; in test [3] (10.0 μM), 30 h. In test [4], the “effect on growth of HFF cells relative to UMJD 100 (in words)” value was “more pronounced”. For the same compound, the “HFF population doublings in 70 hours” value in test [4] (70 hours) is “one population doubling”.
As for `Nc1ncnc2c1c(Br)cn2COC(CO)CO` [UMJD 183, 4-amino-5-bromo-7-[(1,3-dihydroxy-2-propoxy)methyl]-pyrrolo[2,3-d]pyrimidine], the “duration of KB cell growth in presence of drug before slowing or stopping” value in test [3] is recorded as “up to 20 hours”. Also, in test [3] (setting [5]), the “effect on KB cell growth (in words)” value is “inhibited, but to a lesser extent”. Moreover, the “KB cell growth for 50 hours (in words)” value in test [3] (up to 32 μM, 50 hours) was “at a reduced rate”.
Regarding `Nc1ncnc2c1c(Cl)cn2COC(CO)CO` [UMJD 186, 4-amino-5-chloro-7-[(1,3-dihydroxy-2-propoxy)-methyl]pyrrolo[2,3-d]pyrimidine], in test [2], the pIC50 was 4.55.
As to `OCC(CO)OCn1cc(Br)c2c(NO)ncnc21` [UMJD 299, 4-hydroxylamino-5-bromo-7-[(1,3-dihydroxy-2-propoxy)methyl]pyrrolo[2,3-d]pyrimidine], in test [3] (10 μM), the “KB cell growth rate (in words)” value is on record as “nearly control rates”. Moreover, the “effect on KB cell growth (in words)” value in test [3] (setting [5]) was “considerably lesser effects on cell growth”.
